According to patent US9204653B2, “5-fluoro pyrimidine derivatives” (DOW AGROSCIENCES LLC, priority 2008, dated 2015):
Where two headings read alike, the source gives them in different places.

Test system: Mycosphaerella graminicola; Anamorph: Septoria tritici; Bayer Code SEPTTR
Experiment: Leaf blotch of wheat, foliar fungicide treatment, one day protectant (1DP) or three day curative (3DC)
Assay type: in vivo, Septoria tritici on wheat plants (variety Yuma)
Details: Zymoseptoria tritici; for pest or weed control at 200 ppm / pest or weed control at 50 ppm: % disease control rating
[1] = 24 h, one day protectant (1DP), 25 ppm (first 1DP column), percent control rating, read-out: SETTTR 1DP 25 ppm
[2] = 24 h, one day protectant (1DP), 25 ppm as printed (second 1DP column), percent control rating, read-out: SETTTR 1DP 25 ppm
[3] = 72 h, three day curative (3DC), 25 ppm, percent control rating, read-out: SEPTTR 3DC 25 ppm
[4] = 72 h, three day curative (3DC), percent control rating, read-out: SEPTTR 3DC 100 ppm
[5] = 24 h, one day protectant (1DP), 25 ppm, percent disease control rating, read-out: SETTTR 1DP 25 ppm
[6] = 24 h, one day protectant (1DP), percent disease control rating, read-out: SEPTTR 1DP 100 ppm
[7] = 72 h, three day curative (3DC), 25 ppm, percent disease control rating, read-out: SEPTTR 3DC 25 ppm
[8] = 72 h, three day curative (3DC), percent disease control rating, read-out: SEPTTR 3DC 100 ppm
[9] = 24 h, one day protectant (1DP), 25 ppm, rating of percent disease control, read-out: SETTTR 1DP 25 ppm
[10] = 24 h, one day protectant (1DP), rating of percent disease control, read-out: SEPTTR 1DP 100 ppm
[11] = 72 h, three day curative (3DC), 25 ppm, rating of percent disease control, read-out: SEPTTR 3DC 25 ppm
[12] = 72 h, three day curative (3DC), rating of percent disease control, read-out: SEPTTR 3DC 100 ppm
[13] = 24 h, one day protectant, 25 ppm, rating of percent disease control, read-out: SETTTR 1DP 25 ppm
[14] = 24 h, one day protectant, rating of percent disease control, read-out: SEPTTR 1DP 100 ppm
[15] = 72 h, three day curative, 25 ppm, rating of percent disease control, read-out: SEPTTR 3DC 25 ppm
[16] = 72 h, three day curative, rating of percent disease control, read-out: SEPTTR 3DC 100 ppm

## COc1ccc(CONc2nc(OC)ncc2F)cc1 [Compound 1076]
[1]
  pest or weed control at 25 ppm: 0 to 25%
[2]
  pest or weed control at 25 ppm: 0 to 25%
[3]
  pest or weed control at 25 ppm: 0 to 25%
[4]
  pest or weed control at 100 ppm: 26 to 50%

## Cc1ccc(COc2ncc(F)c(NS(=O)(=O)C3CC3)n2)cc1 [Compound 1007]
[1]
  pest or weed control at 25 ppm: 0 to 25%
[2]
  pest or weed control at 25 ppm: 0 to 25%
[3]
  pest or weed control at 25 ppm: 0 to 25%
[4]
  pest or weed control at 100 ppm: 0 to 25%

## Nc1nc(OCc2cccc(C(F)(F)F)c2F)ncc1F [Compound 144]
[5]
  pest or weed control at 25 ppm: 76 to 100%
[6]
  pest or weed control at 100 ppm: 76 to 100%
[7]
  pest or weed control at 25 ppm: 76 to 100%
[8]
  pest or weed control at 100 ppm: 76 to 100%

## COc1cccc(COc2ncc(F)c(NN3CCOCC3)n2)c1 [Compound 754]
[9]
  pest or weed control at 25 ppm: 0 to 25%
[10]
  pest or weed control at 100 ppm: 0 to 25%
[11]
  pest or weed control at 25 ppm: 0 to 25%
[12]
  pest or weed control at 100 ppm: 26 to 50%

## Nc1nc(OCc2ccc(O)cc2)ncc1F [Compound 284]
[9]
  pest or weed control at 25 ppm: 0 to 25%
[10]
  pest or weed control at 100 ppm: 0 to 25%
[11]
  pest or weed control at 25 ppm: 0 to 25%
[12]
  pest or weed control at 100 ppm: 0 to 25%

## Fc1cccc(COc2ncc(F)c(NCc3cccs3)n2)c1 [Compound 910]
24 h, one day protectant
  pest or weed control at 200 ppm: 76 to 100%

## O=C(Nc1nc(OCc2ccc(F)cc2)ncc1F)c1cccc(CBr)c1 [Compound 703]
[13]
  pest or weed control at 25 ppm: 0 to 25%
[14]
  pest or weed control at 100 ppm: 26 to 50%
[15]
  pest or weed control at 25 ppm: 0 to 25%
[16]
  pest or weed control at 100 ppm: 0 to 25%

## Fc1cnc(OCc2ccc3c(c2)OCO3)nc1NC1CC1 [Compound 919]
24 h, one day protectant
  pest or weed control at 200 ppm: 76 to 100%

## Fc1ccccc1CNc1nc(OCc2ccccc2Cl)ncc1F [Compound 893]
24 h, one day protectant
  pest or weed control at 50 ppm: 76 to 100%
  pest or weed control at 200 ppm: 76 to 100%

## Fc1ccccc1CNc1nc(OCc2ccccn2)ncc1F [Compound 888]
24 h, one day protectant
  pest or weed control at 50 ppm: 0 to 25%
  pest or weed control at 200 ppm: 51 to 75%

## CC[Si](CC)(CC)Nc1nc(OCc2cccc(F)c2)ncc1F [Compound 346]
[9]
  pest or weed control at 25 ppm: 76 to 100%
[10]
  pest or weed control at 100 ppm: 76 to 100%
[11]
  pest or weed control at 25 ppm: 76 to 100%
[12]
  pest or weed control at 100 ppm: 76 to 100%

## CCC(Oc1ncc(F)c(N)n1)c1ccc(F)cc1 (stereo not shown) [Compound 513]
[9]
  pest or weed control at 25 ppm: 76 to 100%
[10]
  pest or weed control at 100 ppm: 76 to 100%
[11]
  pest or weed control at 25 ppm: 76 to 100%
[12]
  pest or weed control at 100 ppm: 76 to 100%

## CCOC(=O)Nc1nc(OCc2ccc(C)cc2)ncc1F [Compound 490]
[9]
  pest or weed control at 25 ppm: 76 to 100%
[10]
  pest or weed control at 100 ppm: 76 to 100%
[11]
  pest or weed control at 25 ppm: 76 to 100%
[12]
  pest or weed control at 100 ppm: 76 to 100%

## CNN(C)c1nc(OC)ncc1F [Compound 1056]
[1]
  pest or weed control at 25 ppm: 0 to 25%
[2]
  pest or weed control at 25 ppm: 0 to 25%
[3]
  pest or weed control at 25 ppm: 26 to 50%
[4]
  pest or weed control at 100 ppm: 26 to 50%

## CCCCCOC(=O)Nc1nc(OCc2ccc(F)cc2)ncc1F [Compound 984]
[1]
  pest or weed control at 25 ppm: 76 to 100%
[2]
  pest or weed control at 25 ppm: 76 to 100%
[3]
  pest or weed control at 25 ppm: 76 to 100%
[4]
  pest or weed control at 100 ppm: 76 to 100%

## Cn1ccc(COc2ncc(F)c(/N=C/N3CCOCC3)n2)n1 [Compound 108]
[5]
  pest or weed control at 25 ppm: 76 to 100%
[6]
  pest or weed control at 100 ppm: 76 to 100%
[7]
  pest or weed control at 25 ppm: 76 to 100%
[8]
  pest or weed control at 100 ppm: 76 to 100%

## C=CCOc1ncc(F)c(NNC(=O)c2ccncc2)n1 [Compound 1124]
[1]
  pest or weed control at 25 ppm: 0 to 25%
[2]
  pest or weed control at 25 ppm: 0 to 25%
[3]
  pest or weed control at 25 ppm: 0 to 25%
[4]
  pest or weed control at 100 ppm: 0 to 25%

## COc1cccc(COc2ncc(F)c(NCc3ccccc3F)n2)c1 [Compound 416]
[9]
  pest or weed control at 25 ppm: 0 to 25%
[10]
  pest or weed control at 100 ppm: 0 to 25%
[11]
  pest or weed control at 25 ppm: 0 to 25%
[12]
  pest or weed control at 100 ppm: 26 to 50%

## Fc1cnc(OCc2cccs2)nc1NCc1ccc(Cl)cc1 [Compound 945]
24 h, one day protectant
  pest or weed control at 50 ppm: 76 to 100%
  pest or weed control at 200 ppm: 76 to 100%

## Cc1cnc(CNc2nc(OCCc3ccccc3)ncc2F)cn1 [Compound 934]
24 h, one day protectant
  pest or weed control at 50 ppm: 0 to 25%
  pest or weed control at 200 ppm: 26 to 50%

## COc1ccccc1COc1ncc(F)c(NC(=S)NCc2ccccc2F)n1 [Compound 797]
[9]
  pest or weed control at 25 ppm: 51 to 75%
[10]
  pest or weed control at 100 ppm: 76 to 100%
[11]
  pest or weed control at 25 ppm: 26 to 50%
[12]
  pest or weed control at 100 ppm: 76 to 100%

## C=CCOc1ncc(F)c(NNc2cccc(F)n2)n1 [Compound 1086]
[1]
  pest or weed control at 25 ppm: 0 to 25%
[2]
  pest or weed control at 25 ppm: 0 to 25%
[3]
  pest or weed control at 25 ppm: 0 to 25%
[4]
  pest or weed control at 100 ppm: 0 to 25%

## CCOC(=O)COC(=O)Nc1nc(OCc2cccc(C#N)c2)ncc1F [Compound 782]
[9]
  pest or weed control at 25 ppm: 0 to 25%
[10]
  pest or weed control at 100 ppm: 26 to 50%
[11]
  pest or weed control at 25 ppm: 26 to 50%
[12]
  pest or weed control at 100 ppm: 76 to 100%

## Fc1cnc(OCc2cccc(C(F)(F)F)c2)nc1NCc1ccc(Cl)cc1 [Compound 813]
24 h, one day protectant
  pest or weed control at 50 ppm: 76 to 100%
  pest or weed control at 200 ppm: 76 to 100%

## Nc1nc(Oc2ccccc2Cl)ncc1F [Compound 551]
[13]
  pest or weed control at 25 ppm: 0 to 25%
[14]
  pest or weed control at 100 ppm: 26 to 50%

## Cc1c(N)cccc1COc1ncc(F)c(N)n1 [Compound 399]
[9]
  pest or weed control at 25 ppm: 51 to 75%
[10]
  pest or weed control at 100 ppm: 76 to 100%
[11]
  pest or weed control at 25 ppm: 76 to 100%
[12]
  pest or weed control at 100 ppm: 76 to 100%

## CC(=O)OCNc1nc(OCc2ccc(F)cc2)ncc1F [Compound 259]
[9]
  pest or weed control at 25 ppm: 51 to 75%
[10]
  pest or weed control at 100 ppm: 76 to 100%
[11]
  pest or weed control at 25 ppm: 76 to 100%
[12]
  pest or weed control at 100 ppm: 76 to 100%

## CCCNC(=O)Nc1nc(OCc2cccc(F)c2)ncc1F [Compound 566]
[13]
  pest or weed control at 25 ppm: 0 to 25%
[14]
  pest or weed control at 100 ppm: 0 to 25%
[15]
  pest or weed control at 25 ppm: 0 to 25%
[16]
  pest or weed control at 100 ppm: 0 to 25%

## COc1ccc(S(=O)(=O)Oc2ncc(F)c(/N=C/N(C)C)n2)cc1 [Compound 264]
[9]
  pest or weed control at 25 ppm: 51 to 75%
[10]
  pest or weed control at 100 ppm: 76 to 100%
[11]
  pest or weed control at 25 ppm: 76 to 100%
[12]
  pest or weed control at 100 ppm: 76 to 100%

## Cc1ccc(COc2ncc(F)c(-n3ccnc3)n2)cc1 [Compound 681]
[13]
  pest or weed control at 25 ppm: 76 to 100%
[14]
  pest or weed control at 100 ppm: 76 to 100%
[15]
  pest or weed control at 25 ppm: 76 to 100%
[16]
  pest or weed control at 100 ppm: 76 to 100%

## Fc1cnc(OCc2ccc(OC(F)(F)F)cc2)nc1NC1CC1 [Compound 855]
24 h, one day protectant
  pest or weed control at 200 ppm: 76 to 100%

## N#Cc1cccc(COc2ncc(F)c(/N=C/N3CCOCC3)n2)c1 [Compound 177]
[5]
  pest or weed control at 25 ppm: 76 to 100%
[6]
  pest or weed control at 100 ppm: 76 to 100%
[7]
  pest or weed control at 25 ppm: 76 to 100%
[8]
  pest or weed control at 100 ppm: 76 to 100%

## Fc1ccc(COc2ncc(F)c(/N=C/N3CCOCC3)n2)cc1 [Compound 795]
[9]
  pest or weed control at 25 ppm: 76 to 100%
[10]
  pest or weed control at 100 ppm: 76 to 100%
[11]
  pest or weed control at 25 ppm: 76 to 100%
[12]
  pest or weed control at 100 ppm: 76 to 100%

## Cn1ccc(COc2ncc(F)c(NC(=S)NCc3ccccc3F)n2)n1 [Compound 595]
[13]
  pest or weed control at 25 ppm: 26 to 50%
[14]
  pest or weed control at 100 ppm: 76 to 100%
[15]
  pest or weed control at 25 ppm: 0 to 25%
[16]
  pest or weed control at 100 ppm: 0 to 25%

## C=CCONc1nc(OCc2cccc(OC)c2)ncc1F [Compound 32, O-Allyl-N-(5-fluoro-2-(3-methoxybenzyloxy)pyrimidin-4-yl)hydroxylamine]
[5]
  pest or weed control at 25 ppm: 26 to 50%
[6]
  pest or weed control at 100 ppm: 76 to 100%
[7]
  pest or weed control at 25 ppm: 0 to 25%
[8]
  pest or weed control at 100 ppm: 76 to 100%

## C=CCOC(=O)Oc1ncc(F)c(/N=C/N(C)C)n1 [Compound 647]
[13]
  pest or weed control at 25 ppm: 76 to 100%
[14]
  pest or weed control at 100 ppm: 76 to 100%
[15]
  pest or weed control at 25 ppm: 76 to 100%
[16]
  pest or weed control at 100 ppm: 76 to 100%

## Nc1nc(OCc2ccccc2Br)ncc1F [Compound 604]
[13]
  pest or weed control at 25 ppm: 76 to 100%
[14]
  pest or weed control at 100 ppm: 76 to 100%
[15]
  pest or weed control at 25 ppm: 76 to 100%
[16]
  pest or weed control at 100 ppm: 76 to 100%
